Where two headings read alike, the source gives them in different places.
Tests used:
Assay type in all cases: cell-based
human TLR8 = target: T1, human TLR8 (Homo sapiens, UniProt Q9NR97); assay: TLR8 inhibition reporter assay (HEK-Blue cells, secreted embryonic alkaline phosphatase reporter); conditions: HEK-Blue cells overexpressing human TLR8, stimulated with R848 15.9 μM; read-out: TLR 8 IC50
T1 construct: host or cells: HEK-Blue cells (HEK293-derived reporter line)
T1 sequence (Q9NR97 27-1041): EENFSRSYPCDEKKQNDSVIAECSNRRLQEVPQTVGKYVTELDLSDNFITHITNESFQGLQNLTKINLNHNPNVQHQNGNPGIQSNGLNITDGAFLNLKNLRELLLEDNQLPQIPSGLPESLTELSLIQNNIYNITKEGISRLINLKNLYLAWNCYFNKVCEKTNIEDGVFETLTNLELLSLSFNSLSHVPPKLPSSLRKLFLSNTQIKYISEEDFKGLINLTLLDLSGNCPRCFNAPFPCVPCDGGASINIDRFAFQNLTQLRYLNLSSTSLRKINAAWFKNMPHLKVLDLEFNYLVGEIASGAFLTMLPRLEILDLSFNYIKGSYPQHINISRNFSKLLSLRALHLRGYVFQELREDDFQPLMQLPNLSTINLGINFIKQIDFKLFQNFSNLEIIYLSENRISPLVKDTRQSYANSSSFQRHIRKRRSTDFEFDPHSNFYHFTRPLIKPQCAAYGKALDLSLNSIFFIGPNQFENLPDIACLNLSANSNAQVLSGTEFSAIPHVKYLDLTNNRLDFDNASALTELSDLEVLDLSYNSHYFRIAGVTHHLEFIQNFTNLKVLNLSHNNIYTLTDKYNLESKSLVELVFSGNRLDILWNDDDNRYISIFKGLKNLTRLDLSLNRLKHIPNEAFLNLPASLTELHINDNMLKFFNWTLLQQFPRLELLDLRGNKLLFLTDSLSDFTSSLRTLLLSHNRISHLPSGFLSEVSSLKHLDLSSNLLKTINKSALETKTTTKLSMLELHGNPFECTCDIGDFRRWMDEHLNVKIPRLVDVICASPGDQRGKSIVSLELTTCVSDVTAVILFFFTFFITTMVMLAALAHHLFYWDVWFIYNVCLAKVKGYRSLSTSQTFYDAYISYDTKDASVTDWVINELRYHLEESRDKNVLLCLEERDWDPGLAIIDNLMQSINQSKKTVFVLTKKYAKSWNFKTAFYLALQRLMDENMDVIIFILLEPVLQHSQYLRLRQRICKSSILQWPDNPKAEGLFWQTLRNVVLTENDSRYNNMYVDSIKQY
In short: (§1)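 Steps: seed receptor-specific HEK-Blue cells; add compound, 0.05 nM–50 μM; wait 30 min at room temperature; add final gardiquimod 7.5 μM, R848 15.9 μM or ODN2006 5 nM for TLR7, TLR8 or TLR9; incubate 22 h at 37 °C; detect NF-κB/AP-1-driven SEAP.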

human TLR9 = target: T2, human TLR9 (Homo sapiens, UniProt Q9NR96); assay: TLR9 inhibition reporter assay (HEK-Blue cells, secreted embryonic alkaline phosphatase reporter)
T2 construct: host or cells: HEK-Blue cells (HEK293-derived reporter line)
T2 sequence (Q9NR96 26-1032): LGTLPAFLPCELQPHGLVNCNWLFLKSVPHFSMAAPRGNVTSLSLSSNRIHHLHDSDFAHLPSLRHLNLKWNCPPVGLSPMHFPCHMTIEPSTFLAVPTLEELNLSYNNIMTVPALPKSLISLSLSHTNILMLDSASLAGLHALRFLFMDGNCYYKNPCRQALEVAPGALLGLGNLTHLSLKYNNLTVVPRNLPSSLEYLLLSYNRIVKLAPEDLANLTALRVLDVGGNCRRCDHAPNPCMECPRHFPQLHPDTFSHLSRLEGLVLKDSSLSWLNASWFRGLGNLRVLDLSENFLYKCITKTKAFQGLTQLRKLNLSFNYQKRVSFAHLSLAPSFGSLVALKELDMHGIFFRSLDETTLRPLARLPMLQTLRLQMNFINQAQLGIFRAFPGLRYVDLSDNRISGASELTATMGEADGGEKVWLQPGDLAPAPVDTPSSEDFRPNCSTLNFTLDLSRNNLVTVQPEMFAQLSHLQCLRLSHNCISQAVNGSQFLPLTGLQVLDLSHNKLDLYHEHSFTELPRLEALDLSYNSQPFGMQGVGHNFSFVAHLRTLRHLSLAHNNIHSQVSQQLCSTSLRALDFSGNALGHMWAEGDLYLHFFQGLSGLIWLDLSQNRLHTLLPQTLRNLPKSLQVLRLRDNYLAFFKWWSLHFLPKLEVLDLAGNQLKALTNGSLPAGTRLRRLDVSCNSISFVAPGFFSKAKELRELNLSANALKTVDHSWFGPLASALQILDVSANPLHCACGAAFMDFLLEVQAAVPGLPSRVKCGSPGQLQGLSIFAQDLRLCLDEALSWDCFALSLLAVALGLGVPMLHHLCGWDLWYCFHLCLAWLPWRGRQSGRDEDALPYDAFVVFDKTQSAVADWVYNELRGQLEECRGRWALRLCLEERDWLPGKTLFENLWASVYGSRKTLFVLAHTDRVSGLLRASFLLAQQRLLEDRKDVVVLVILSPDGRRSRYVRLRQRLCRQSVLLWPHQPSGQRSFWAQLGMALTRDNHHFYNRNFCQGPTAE
In short: as §1

human TLR7 = target: T3, human TLR7 (Homo sapiens, UniProt Q9NYK1); assay: TLR7 inhibition reporter assay (HEK-Blue cells, secreted embryonic alkaline phosphatase reporter); conditions: HEK-Blue cells overexpressing human TLR7, stimulated with gardiquimod 7.5 μM; read-out: TLR 7 IC50
T3 construct: host or cells: HEK-Blue cells (HEK293-derived reporter line)
T3 sequence (Q9NYK1 27-1049): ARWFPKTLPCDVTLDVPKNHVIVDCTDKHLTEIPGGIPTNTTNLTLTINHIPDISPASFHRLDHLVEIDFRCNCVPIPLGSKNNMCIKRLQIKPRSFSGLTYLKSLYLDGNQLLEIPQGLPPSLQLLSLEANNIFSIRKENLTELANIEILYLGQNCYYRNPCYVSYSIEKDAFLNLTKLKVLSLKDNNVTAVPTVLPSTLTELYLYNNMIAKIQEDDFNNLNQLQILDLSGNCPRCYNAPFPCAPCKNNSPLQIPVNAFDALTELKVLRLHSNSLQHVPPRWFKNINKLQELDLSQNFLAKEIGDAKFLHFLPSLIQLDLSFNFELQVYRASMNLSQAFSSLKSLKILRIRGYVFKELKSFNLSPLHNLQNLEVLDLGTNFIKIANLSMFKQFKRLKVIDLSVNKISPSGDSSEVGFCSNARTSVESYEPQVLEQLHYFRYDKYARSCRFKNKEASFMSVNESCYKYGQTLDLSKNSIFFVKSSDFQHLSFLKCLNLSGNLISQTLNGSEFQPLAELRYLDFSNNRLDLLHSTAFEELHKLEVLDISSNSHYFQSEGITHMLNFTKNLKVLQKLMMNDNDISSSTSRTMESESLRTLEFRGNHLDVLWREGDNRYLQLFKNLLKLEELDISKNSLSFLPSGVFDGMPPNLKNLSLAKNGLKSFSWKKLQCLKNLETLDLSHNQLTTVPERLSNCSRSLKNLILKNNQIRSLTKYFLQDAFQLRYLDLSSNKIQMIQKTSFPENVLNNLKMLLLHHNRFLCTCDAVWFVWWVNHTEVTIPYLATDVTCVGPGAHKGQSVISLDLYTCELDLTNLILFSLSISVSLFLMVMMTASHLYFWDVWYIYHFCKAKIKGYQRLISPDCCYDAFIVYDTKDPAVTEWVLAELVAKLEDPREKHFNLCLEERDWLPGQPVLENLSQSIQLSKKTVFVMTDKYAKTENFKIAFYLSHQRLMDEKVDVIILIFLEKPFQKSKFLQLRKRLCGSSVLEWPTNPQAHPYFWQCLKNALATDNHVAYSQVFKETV
In short: as §1

[1] = HEK-Blue cells overexpressing human TLR9, stimulated with ODN2006 5 nM, read-out: TLR 9 IC50
[2] = HEK-Blue cells overexpressing human TLR9, stimulated with ODN2006 5 nM, 22 hour incubation, reporter readout

Structure (SMILES)	IC50 (human TLR8) [nM]	IC50 (human TLR9) [nM]	IC50 (human TLR9; [1]) [nM]	IC50 (human TLR7) [nM]	IC50 (human TLR9; [2]) [nM]
Cn1c(-c2ccc(S(C)(=O)=O)cc2)nc2ccc(C3CCN(C4CC5CCC(C4)N5C4CCC4)CC3)c(F)c21 (single isomer, unassigned) [Example 271, 6-(1-(8-cyclobutyl-8-azabicyclo[3.2.1]octan-3-yl)piperidin-4-yl)-7-fluoro-1-methyl-2-(4-(methylsulfonyl)phenyl)-1H-benzo[d]imidazole]	> 50000	410	407	31600	–
COc1ccc(-c2nc3c(C)cc(C4CCN(C5CCN(C(C)C)CC5)CC4)cc3[nH]2)cc1F [Example 24, 2-(3-fluoro-4-methoxyphenyl)-6-(1′-isopropyl-[1,4′-bipiperidin]-4-yl)-4-methyl-1H-benzo[d]imidazole]	> 50000	–	–	3000	48
Cn1c(-c2ccc(S(C)(=O)=O)cc2)nc2cc(F)c(C3CCN(C4CC5CCC(C4)N5CC4CC4)CC3)cc21 (stereo not drawn) [Example 231, 6-(1-(8-(cyclopropylmethyl)-8-azabicyclo[3.2.1]octan-3-yl)piperidin-4-yl)-5-fluoro-1-methyl-2-(4-(methylsulfonyl)phenyl)-1H-benzo[d]imidazole]	> 50000	58	58	> 50000	–
CS(=O)(=O)c1ccc(-c2nc3ccc(C4CCN(C5CCN(C6CCOCC6)CC5)CC4)c(F)c3[nH]2)cc1 [Example 182, 7-fluoro-2-(4-(methylsulfonyl)phenyl)-6-(1′-(tetrahydro-2H-pyran-4-yl)-[1,4′-bipiperidin]-4-yl)-1H-benzo[d]imidazole]	> 50000	320	316	> 50000	–
CC(C)CN1C2CCC1CC(N1CCC(c3cc4nc(-c5ccc(S(C)(=O)=O)cc5)n(C)c4cc3F)CC1)C2 (stereo not drawn) [Example 248, 6-fluoro-5-(1-(8-isobutyl-8-azabicyclo[3.2.1]octan-3-yl)piperidin-4-yl)-1-methyl-2-(4-(methylsulfonyl)phenyl)-1H-benzo[d]imidazole]	> 50000	78	78	> 50000	–
COc1ccc(-c2nc3c(C)cc(C4CCN(C5CCN(C(C)C)CC5)CC4)cc3n2C)cc1OC [Example 45, 2-(3,4-dimethoxyphenyl)-6-(1′-isopropyl-[1,4′-bipiperidin]-4-yl)-1,4-dimethyl-1H-benzo[d]imidazole]	> 50000	–	20	11000	20
CN(C)C1CCN(Cc2ccc(-c3ccc4nc(-c5ccccc5S(C)(=O)=O)n(C)c4c3)cc2)CC1 [Example 379, N,N-dimethyl-1-(4-(1-methyl-2-(2-(methylsulfonyl)phenyl)-1H-benzo[d]imidazol-6-yl)benzyl)piperidin-4-amine]	18800	–	98	1000	98
CC(C)CN1CCC(N2CCC(c3ccc4nc(-c5ccc(S(C)(=O)=O)cc5)[nH]c4c3F)CC2)CC1 [Example 177, 7-fluoro-6-(1′-isobutyl-[1,4′-bipiperidin]-4-yl)-2-(4-(methylsulfonyl)phenyl)-1H-benzo[d]imidazole]	> 50000	120	120	> 50000	–
COc1ccc(-c2nc3c(C)cc(C4CCN(C5CC6CCC(C5)N6CC(C)C)CC4)cc3[nH]2)cc1OC (single isomer, unassigned) [Example 20, 2-(3,4-dimethoxyphenyl)-6-(1-(8-isobutyl-8-azabicyclo[3.2.1]octan-3-yl)piperidin-4-yl)-4-methyl-1H-benzo[d]imidazole]	> 50000	–	–	4100	69
CC(C)N1CCC(N2CCC(c3cc4nc(-c5ccc(S(C)(=O)=O)cc5)n(C)c4cc3F)CC2)CC1 [Example 99, 6-fluoro-5-(1′-isopropyl-[1,4′-bipiperidin]-4-yl)-1-methyl-2-(4-(methylsulfonyl)phenyl)-1H-benzo[d]imidazole]	> 50000	–	358	38300	360
COc1ccc(-c2nc3c(C)cc(C4CCN(C5CC6CCC(C5)N6CC(C)C)CC4)cc3n2C)cc1OC (single isomer, unassigned) [Example 17, 2-(3,4-dimethoxyphenyl)-6-(1-(8-isobutyl-8-azabicyclo[3.2.1]octan-3-yl)piperidin-4-yl)-1,4-dimethyl-1H-benzo[d]imidazole]	> 50000	–	–	6500	25
Cc1cc(-c2ccc(CN3CCC(N(C)C)CC3)cc2)cc2c1nc(-c1ccc(S(C)(=O)=O)cc1)n2C [Example 385, 1-(4-(1,4-dimethyl-2-(4-(methylsulfonyl)phenyl)-1H-benzo[d]imidazol-6-yl)benzyl)-N,N-dimethylpiperidin-4-amine]	5600	–	179	1200	180
